Values after ≈ are worked out from the molar mass of the structure shown.
Experiments:
[1] = tested on: E. coli deletion mutants; assay: Chemical genomic profiling in E. coli deletion mutants; type: cell-based, Escherichia coli
Description: Chemical genomic profiling was also performed in Escherichia coli to further investigate the mechanism of action of ecteinamycin. Similar to the chemical genomic profiling with yeast, ecteinamcyin was screened against over 6,000 deletion mutant E. coli strains, genomic DNA was extracted, and mutant-specific DNA barcodes were amplified and sequenced by Illumina sequencing. Ecteinamycin sensitive and resistant mutants were determined by quantification of DNA-barcodes in order to provide a chemical genomic profile to aid in evaluating the mechanism of action (Table 7).

[2] = Pharmacokinetic study in mice, ecteinamycin in plasma; type: in vivo; conditions: female, FVB, mouse, oral 5 mg/kg vs retro-orbital IV 2.5 mg/kg, dose adjusted
Description: An Agilent 1100 LCMS system (ESI-MS positive mode) with a Phenomenex Kinetix C18 column (100×4.6 mm, 2.6 μm) at a flow rate of 0.5 mL/min was used for all analysis. The gradient was from 75% MeOH/25% 1 mM ammonium acetate in H2O to 93% MeOH/7% 1 mM ammonium acetate in H2O in 11 mins, then 93% MeOH/7% 1 mM ammonium acetate in H2O to 100% MeOH for 0.1 min and holding 100% MeOH for 3.9 mins.
A standard curve was constructed using known concentrations of ecteinamycin (1000, 500, 250, 125, 62.50, 31.25, 15.625, 7.8125, 3.90625 ng/mL) in blank human plasma. Linear regression analysis was performed on the peak areas, and the resulting linear equation was used to calculate the ecteinamycin concentrations of quality control (QC) standards of ecteinamycin in human plasma (800, 200, 25, 12.5 ng/mL). The limit of detection was determined to be 31.25 ng/mL, and the limit of quantification was determined to be 62.50 ng/mL.
Eight-to-nine-week-old FVB female mice weighing 20.5 to 25.6 g were used for all studies. […]
Ecteinamycin was formulated with polyethylene glycol (PEG) 300, 25 mM Tris (1:1), pH 8.9. […] Sample quantitation was determined by weighted (R^2) linear regression using a 9-point curve. […] The % oral bioavailability was calculated from the concentration of ecteinamycin (adjusted for dose) in plasma between oral and IV dose: [ecteinamycinoral]/[ecteinamycinIV]×100. […]

[3] = Lethality of intravenous injection in mice; type: in vivo; conditions: 5 mg/kg IV
Description: Eight-to-nine-week-old FVB female mice weighing 20.5 to 25.6 g were used for all studies. Animals were maintained in accordance with the American Association for Accreditation of Laboratory Care criteria. Animal studies were approved by the University of Wisconsin Animal Care Committee.
Ecteinamycin was formulated with polyethylene glycol (PEG) 300, 25 mM Tris (1:1), pH 8.9. Mice were treated orally at 5 mg/kg or by retro-orbital intravenous injection at 2.5 mg/kg. Retro-orbital intravenous injection at 5 mg/kg was lethal. After 30 mins and 1 h, approximately 400 μL of blood was collected from the chest cavity in BD microtainer tubes with lithium heparin. Blood was centrifuged at 10,000 rpm for 10 mins Fifty μL of supernatant was added to 200 μL of acetonitrile (containing 0.1% formic acid) in a new polypropylene tube, vortexed for 1 min, and centrifuged for 10 mins at 14,000 rpm at 4° C. One hundred μL was transferred to a 96 well polypropylene microplate, 100 μL of H2O was added, and the plate was covered and shaken for 1 min and placed in the autosampler for analysis. […] Sample quantitation was determined by weighted (R^2) linear regression using a 9-point curve. […] The % oral bioavailability was calculated from the concentration of ecteinamycin (adjusted for dose) in plasma between oral and IV dose: [ecteinamycinoral]/[ecteinamycinIV]×100. […]

[4] = tested on: P. aeruginosa (ATCC #27853); assay: MIC, dilution antimicrobial susceptibility test; type: cell-based; conditions: Pseudomonas aeruginosa, ATCC27853, 33° C., 18 h
Description: (§1) Ecteinamycin was tested for antibacterial activity against C. difficile (ATCC BAA-1870), MRSA (ATCC #33591), MSSA (ATCC #29213), E. coli (ATCC #25922), P. aeruginosa (ATCC #27853), and VRE (ATCC), and MICs were determined using a dilution antimicrobial susceptibility test for aerobic (MRSA, MSSA, E. coli, P. aeruginosa, and VRE) and anaerobic (C. difficile) bacteria. Ecteinamycin was dissolved in DMSO, serially diluted to 10 concentrations (0.0313-32 μg/mL), and tested in a 96-well plate. […] Ecteinamycin and vancomycin were tested in triplicate. Six untreated media controls were included on each plate. For MRSA, MSSA, E. coli, and P. aeruginosa, the plates were incubated at 33° C. for 18 h. For C. difficile, the plate was incubated at 36° C. for 48 h anaerobically and then read visually using a mirror apparatus. All manipulations to the plate were done inside the anaerobe chamber. The MIC was determined as the lowest concentration that inhibited visible growth.

[5] = tested on: E. coli (ATCC #25922); assay: MIC, dilution antimicrobial susceptibility test; type: cell-based; conditions: Escherichia coli, ATCC25922, 33° C., 18 h
Description: as §1

[6] = tested on: VRE (ATCC); assay: MIC, dilution antimicrobial susceptibility test; type: cell-based, Vancomycin-resistant Enterococcus; conditions: Enterococcus
Description: as §1

SMILES: C=C1OC(=O)C(C(=O)CC2OC(C(C)C(O)C(CC)C(=O)C(C)(O)C3CCC(CC)(C4CCC(O)(C(C)OC)C(C)O4)O3)C(C)CC2C)=C1O (centres unmarked) [ecteinamycin]
- Fold Change in abundance relative to solvent control ([1]; acrA deletion mutant): 0.087
- Fold Change in abundance relative to solvent control ([1]; acrB deletion mutant): 0.189
- Fold Change in abundance relative to solvent control ([1]; atpA deletion mutant): 0.280
- Fold Change in abundance relative to solvent control ([1]; atpF deletion mutant): 0.207
- Fold Change in abundance relative to solvent control ([1]; csgE deletion mutant): 0.369
- Fold Change in abundance relative to solvent control ([1]; dksA deletion mutant): 0.187
- Fold Change in abundance relative to solvent control ([1]; fis deletion mutant): 0.416
- Fold Change in abundance relative to solvent control ([1]; hupA deletion mutant): 0.518
- Fold Change in abundance relative to solvent control ([1]; kdpD deletion mutant): 0.374
- Fold Change in abundance relative to solvent control ([1]; ldcA deletion mutant): 0.341
- Fold Change in abundance relative to solvent control ([1]; rpoS deletion mutant): 0.350
- Fold Change in abundance relative to solvent control ([1]; sapB deletion mutant): 0.241
- Fold Change in abundance relative to solvent control ([1]; sapD deletion mutant): 0.197
- Fold Change in abundance relative to solvent control ([1]; trkA deletion mutant): 0.145
- Fold Change in abundance relative to solvent control ([1]; ycdR deletion mutant): 0.287
- Fold Change in abundance relative to solvent control ([1]; yhjK deletion mutant): 0.485
- Fold Change in abundance relative to solvent control ([1]; yraP deletion mutant): 0.365
- bioavailability at 30 min ([2]; after 30 mins): 10.9%
- bioavailability at 1 h ([2]; after 1 h): 29.3%
- lethality of retro-orbital intravenous injection [3]: lethal
- MIC [4]: 8 µg/mL (≈ 11.3 µM)
- MIC [5]: 16 µg/mL (≈ 22.6 µM)
- MIC [6]: 0.25 µg/mL (≈ 0.353 µM)
